One data set has as its system p21^WAF1/CIP1. Kind of data set: p21WAF1/CIP1 levels in MV-4-11 leukemia cells by Western blotting. Format: cell-based. The following applies: MV-4-11 cells. A general note: Immunoblotting shows a protein as a band on a membrane.
A further data set concerns MV-4-11 leukemia cells. Briefly: Growth inhibition of cultured MV-4-11 leukemia cells. Format: cell-based. The following applies: for growth inhibitor activity in the MV-4-11 cell line: 24 hours exposure, 1 to 100 μM.
The next data set can be described thus: Solubility observations. The following applies: greater concentration required more than 1% DMSO. Format: physicochemical.
Another data set concerns the target T1, HDAC8 (Homo sapiens, UniProt Q9BY41).
T1 sequence (Q9BY41 1-377): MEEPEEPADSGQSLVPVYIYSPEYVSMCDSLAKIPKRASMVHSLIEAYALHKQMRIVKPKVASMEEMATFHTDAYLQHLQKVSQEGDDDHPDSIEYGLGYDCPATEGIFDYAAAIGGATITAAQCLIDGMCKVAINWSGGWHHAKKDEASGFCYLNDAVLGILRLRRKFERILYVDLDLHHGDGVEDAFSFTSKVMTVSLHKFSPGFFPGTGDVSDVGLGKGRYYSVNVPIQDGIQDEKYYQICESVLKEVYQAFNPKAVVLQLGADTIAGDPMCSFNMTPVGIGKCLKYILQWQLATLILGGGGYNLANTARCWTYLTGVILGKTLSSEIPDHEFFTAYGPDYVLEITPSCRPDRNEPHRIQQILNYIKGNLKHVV
Briefly: HDAC8 inhibition, human recombinant HDAC isoform survey. Format: biochemical.

Data set [1] is described as follows: Zinc binding affinity by isothermal calorimetry. The following applies: ITC, 25 °C. (Isothermal titration calorimetry measures the heat released or taken up as one component is titrated into another.)
Another data set concerns acetylated H3K9. The following applies: MV-4-11 cells.
The next data set concerns the target HDAC1 (Homo sapiens, UniProt Q13547). Kind of data set: HDAC1 inhibition, human recombinant HDAC isoform survey. Format: biochemical.
For a further data set, the target named is T2, HDAC10 (Homo sapiens, UniProt Q969S8).
T2 sequence (Q969S8 1-669): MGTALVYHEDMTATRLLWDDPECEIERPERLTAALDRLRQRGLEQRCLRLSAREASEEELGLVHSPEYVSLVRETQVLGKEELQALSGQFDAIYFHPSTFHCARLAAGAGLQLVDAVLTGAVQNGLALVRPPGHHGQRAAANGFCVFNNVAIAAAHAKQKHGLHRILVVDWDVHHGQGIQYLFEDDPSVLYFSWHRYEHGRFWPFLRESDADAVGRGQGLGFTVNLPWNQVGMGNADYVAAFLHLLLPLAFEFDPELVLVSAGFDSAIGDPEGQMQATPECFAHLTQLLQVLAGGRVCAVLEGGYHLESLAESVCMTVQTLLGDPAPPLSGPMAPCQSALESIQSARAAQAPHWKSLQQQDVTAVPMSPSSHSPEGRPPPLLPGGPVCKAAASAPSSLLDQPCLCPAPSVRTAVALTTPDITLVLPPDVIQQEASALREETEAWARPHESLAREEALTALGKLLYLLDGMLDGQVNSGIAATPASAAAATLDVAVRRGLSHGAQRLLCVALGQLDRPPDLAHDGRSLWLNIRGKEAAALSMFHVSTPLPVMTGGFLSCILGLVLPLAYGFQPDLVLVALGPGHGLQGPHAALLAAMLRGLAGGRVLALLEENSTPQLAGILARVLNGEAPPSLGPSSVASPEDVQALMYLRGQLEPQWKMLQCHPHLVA
Briefly: HDAC10 inhibition, human recombinant HDAC isoform survey. Format: biochemical. The following applies: from % inhibition at 20 μM.

HDAC1, sequence (Q13547 whole entry, canonical isoform): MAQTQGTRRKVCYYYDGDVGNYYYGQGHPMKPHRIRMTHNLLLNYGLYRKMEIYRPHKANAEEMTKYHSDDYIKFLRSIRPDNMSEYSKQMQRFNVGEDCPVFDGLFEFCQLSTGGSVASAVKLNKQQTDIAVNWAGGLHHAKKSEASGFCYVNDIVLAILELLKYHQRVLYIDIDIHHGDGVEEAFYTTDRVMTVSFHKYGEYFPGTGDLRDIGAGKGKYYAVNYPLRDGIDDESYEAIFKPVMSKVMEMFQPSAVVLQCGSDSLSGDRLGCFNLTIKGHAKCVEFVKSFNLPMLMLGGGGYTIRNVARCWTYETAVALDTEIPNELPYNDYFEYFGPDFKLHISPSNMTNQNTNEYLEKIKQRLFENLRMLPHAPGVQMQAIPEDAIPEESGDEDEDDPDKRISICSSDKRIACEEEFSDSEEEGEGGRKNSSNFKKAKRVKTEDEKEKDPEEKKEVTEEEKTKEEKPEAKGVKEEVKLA

Broadly, the IC50 is the concentration at which inhibition is half-maximal. Consider `O=C(NC(c1ccccc1)c1ccccc1)c1coc(-c2ccccc2O)n1` [Compound 10], for which the “amount of p21Waf1/CIP1 induced relative to 0.5 μM of SAHA” value with p21^WAF1/CIP1 is “comparable amount”. Moreover, in the data set with p21^WAF1/CIP1 (concentrations between 1.0 and 10.0 μM), the “p21^WAF1/CIP1 expression” value is “dose-dependent increase”. The “difference in cellular IC50 value against MV4-11 cells between SAHA and compound 10” value in the data set with MV-4-11 leukemia cells (SAHA 0.7 μM vs 10 7.5 μM) is on record as 10.7 fold. Further, in “Solubility observations”, the “solution concentration attainable without more than 1% DMSO” value was at most 20 µM. In addition, the “inhibitory activity against HDAC8” value on HDAC8 is reported as “very poor inhibitory activity”. Moreover, the “ΔG, binding to Zn^++” value in data set [1] is -21.35 kJ/mol. In data set [1] (compound in methanol, zinc in 50mM HEPES pH 7.0), the “KA, binding to Zn^++” value is reported as 4,937 M^-1. Besides, the “amount of acetylated H3K9 induced relative to 0.5 μM of SAHA” value in the data set on acetylated H3K9 is recorded as “comparable amount”. Besides, in the data set with acetylated H3K9 (Western blot), the “concentration producing an increase in H3K9 acetylation equivalent to 0.5 μM SAHA” value came to 2.5 µM and the “concentration with measurable increase in cellular levels of acetylated H3K9” value was at least 2.5 µM. Besides, the “change in H3K9 acetylation” value in the data set on acetylated H3K9 (concentrations between 1.0 and 10 μM) was “dose-dependent change in acetylation”. At HDAC1, the IC50 was under 20 µM.

Consider `O=C(NCCC(c1ccccc1)c1ccccc1)c1coc(-c2ccccc2O)n1` [Compound 12], for which the “growth inhibitor activity in the MV-4-11 cell line” value (shortened to “growth inhibitor activity”) with MV-4-11 leukemia cells is “inactive”.

Consider `O=C(Nc1ccc(-c2ccccc2)cc1)c1coc(-c2ccccc2O)n1` [Compound 13], for which the “growth inhibitor activity” value with MV-4-11 leukemia cells is “inactive”.

Turning to `O=C(NCc1ccc(-c2ccccc2)cc1)c1coc(-c2ccccc2O)n1` [Compound 14], the “growth inhibitor activity” value with MV-4-11 leukemia cells is “inactive”.

Consider `O=C(NCCCCNC(=S)NCCC(c1ccccc1)c1ccccc1)c1coc(-c2ccccc2O)n1` [Compound 19], for which, at HDAC10, the isoform selectivity entry was “moderately selective for HDAC10”.

`O=C(Nc1ccccc1)c1ccc(CNC(=O)c2coc(-c3ccccc3O)n2)cc1` [Compound 23]: at HDAC10, the isoform selectivity result was “moderately selective for HDAC10”.

Turning to `O=C(CNC(=O)c1coc(-c2ccccc2O)n1)Nc1ccccc1` [Compound 24], the isoform selectivity entry at HDAC10 is “moderately selective for HDAC10”.
